Measurements: PMC12656565, “In Vitro and Ultrastructural Evaluation of the Cytotoxic and Antileishmanial Activities of Thiosemicarbazone Compounds Against Promastigotes and Axenic Amastigotes of Leishmania infantum” (Tropical Medicine and Infectious Disease, 2025)

Assays:
[1] = tested on: J774 macrophages and Vero cells; parameters: method as in ref [21] Aliança et al.; details: ref [21] Aliança et al.; cited from earlier work
peritoneal macrophages = tested on: peritoneal macrophages; parameters: method as in ref [23] Queiroz et al.; details: ref [23] Queiroz et al.; cited from earlier work
J774.A1 macrophages = test: Cytokine dosage (CBA) in supernatants of uninfected macrophages; assay type: cell-based, Mouse; details: 1× and 2× CC50, 72 h
Experimental: J774.A1 macrophage lineage cells were cultured in 96-well polystyrene plates containing DMEM medium supplemented with 10% FBS. Cells were incubated with the following concentrations: 1× CC50 and 2× CC50 of compounds LT-73 and LT-75 and amphotericin B, as well as 1% DMSO diluent solution as control, for 72 h. The cells used in these assays were not infected with Leishmania infantum, allowing the evaluation of cytokine modulation and cytotoxicity in uninfected macrophages. After cultivation, 100 µL of culture supernatants were collected and immediately stored at −20 °C for later use in CBA assays (Cytometric Bead Array-BD Biosciences, BD Biosciences, San Jose, CA, USA). This assay utilized a mixture of […] polystyrene beads with different fluorescence intensities, coated with specific antibodies for quantification of cytokines IFN-γ, TNF, IL-10, IL-6, IL-4, IL-2, and IL-17a present in sample supernatants. Cytokine levels were quantified using the BD Cytometric Bead Array (CBA) Mouse Th1/Th2/Th17 kit (Cat. No. 560485, BD Biosciences, San Jose, CA, USA) and analyzed on a BD FACSCalibur™ Flow Cytometer with BD CellQuest PRO Software (BD Biosciences; version 5.1 by the facility). Results are expressed in pg/mL based on standard curves provided by the manufacturer.

SMILES	cytotoxicity [1] [µM]	cytotoxicity (peritoneal macrophages) [µM]	IFN-γ production (J774.A1 macrophages)	IL-6 secretion (J774.A1 macrophages)
C[C@@H]1[C@H](O)[C@@H](C)/C=C/C=C/C=C/C=C/C=C/C=C/C=C/[C@H](O[C@@H]2O[C@H](C)[C@@H](O)[C@H](N)[C@@H]2O)C[C@@H]2O[C@](O)(C[C@@H](O)C[C@@H](O)[C@H](O)CC[C@@H](O)C[C@@H](O)CC(=O)O[C@H]1C)C[C@H](O)[C@H]2C(=O)O [Amphotericin B, reference compound]	74.7	74.86	–	–
N#Cc1ccc2[nH]cc(/C=N/NC(=S)Nc3ccc(Cl)cc3)c2c1 [LT-75]	–	–	induced the production of the cytokine IFN-γ	discrete elevation detected at 1× LT-75
S=C(N/N=C/c1c[nH]c2ncccc12)Nc1ccccc1 [LT-73]	–	–	no cytokine production was observed	IL-6 production was observed only at the CC50 concentration
